Laboratory results taken from US9078429B2, “Method of cryopreserving stem cells” (The Governors of the University of Alberta, priority 2004, dated 2015).

System: TF-1 cells
Experiment: Post-thaw recovery of TF-1 cells by membrane integrity assay (SYTO 13/ethidium bromide) after cryopreservation
Format: cell-based, human
Conditions: TF-1 cells in 10% DMSO/RPMI, conventional cooling at a constant rate of 0.9° C./min, then liquid nitrogen, thawed
Description: FIG. 12. Membrane integrity of TF-1 cells in 10% DMSO cooled at 1° C./min to various subzero temperatures and then either thawed directly (upper curve) or cooled rapidly at 325° C./min in liquid nitrogen (lower curve) before being thawed.
TF-1 cells (ATCC, Manassas, Va.) were grown at 37° C. in 5% CO2 in RPMI 1640 Medium Modified (ATCC) with 10% fetal bovine serum (FBS) (ATCC), and supplemented with 2 ng/mL recombinant human GM-CSF (Stemcell Technologies, Vancouver, Canada). Cells were maintained between 0.1×10^6 and 1×10^6 cells/mL, according to ATCC guidelines. Prior to experiments, cells were washed twice with serum-free RPMI media and incubated overnight. […]
Cell viability was assessed by a membrane integrity assay. […]
The Syto/EB stain was prepared using 40 μL of 2.5 mM EB stock solution and 10 μL of 5 mM Syto® 13 stock solution mixed with 350 μL 1× phosphate-buffered saline (PBS). […] Fluorescent images were captured using a Leitz Dialux 22 fluorescence (440-480 nm) microscope (Leitz, Germany) fitted with a PIXERA DiRactor (Pixera Corporation, Los Gatos, Calif., USA) digital camera. The Viability Assessment Program (The Great Canadian Computer Company, Spruce Grove, Canada), which counts red versus green pixels was used to quantify cell membrane integrity from digital images (Jomha, 2003). […]

C[S+](C)[O-] [DMSO, dimethyl sulfoxide]
recovery (membrane integrity) after thawing: 63.7%
